We go through 27 molecules from patent US6716833B2, “Acetylenic α-amino acid-based sulfonamide hydroxamic acid tace inhibitors” (priority 1999, dated 2004).

Where two headings read alike, the source gives them in different places.

Holding throughout (format): biochemical
The target of test [1] is TNF-α converting enzyme (TACE) (Homo sapiens, UniProt P78536). Briefly: TACE inhibition (fluorescent peptidyl substrate). The note with it: read-out: TACE IC50.
The target of test [2] is MMP-13 (Homo sapiens, UniProt P45452). Briefly: MMP-13 inhibition (thiopeptide or fluorescent peptide substrate). The conditions noted are these: read-out: MMP-13 IC50.
Test [3] addresses T1, MMP-1 (Homo sapiens, UniProt P03956).
T1 sequence (P03956 100-469): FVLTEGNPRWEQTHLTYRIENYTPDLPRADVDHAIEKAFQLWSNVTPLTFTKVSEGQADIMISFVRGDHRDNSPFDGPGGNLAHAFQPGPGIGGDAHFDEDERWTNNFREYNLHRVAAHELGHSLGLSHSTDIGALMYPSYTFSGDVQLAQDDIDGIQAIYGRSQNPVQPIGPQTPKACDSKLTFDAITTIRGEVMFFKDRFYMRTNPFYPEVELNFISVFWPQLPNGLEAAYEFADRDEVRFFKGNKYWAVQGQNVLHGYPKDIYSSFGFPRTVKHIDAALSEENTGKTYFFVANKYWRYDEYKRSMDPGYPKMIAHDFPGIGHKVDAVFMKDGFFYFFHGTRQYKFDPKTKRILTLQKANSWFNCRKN
The test is described as follows: MMP-1 inhibition (thiopeptide or fluorescent peptide substrate).

Chain of TNF-α converting enzyme (TACE) (P78536 215-824, species assumed): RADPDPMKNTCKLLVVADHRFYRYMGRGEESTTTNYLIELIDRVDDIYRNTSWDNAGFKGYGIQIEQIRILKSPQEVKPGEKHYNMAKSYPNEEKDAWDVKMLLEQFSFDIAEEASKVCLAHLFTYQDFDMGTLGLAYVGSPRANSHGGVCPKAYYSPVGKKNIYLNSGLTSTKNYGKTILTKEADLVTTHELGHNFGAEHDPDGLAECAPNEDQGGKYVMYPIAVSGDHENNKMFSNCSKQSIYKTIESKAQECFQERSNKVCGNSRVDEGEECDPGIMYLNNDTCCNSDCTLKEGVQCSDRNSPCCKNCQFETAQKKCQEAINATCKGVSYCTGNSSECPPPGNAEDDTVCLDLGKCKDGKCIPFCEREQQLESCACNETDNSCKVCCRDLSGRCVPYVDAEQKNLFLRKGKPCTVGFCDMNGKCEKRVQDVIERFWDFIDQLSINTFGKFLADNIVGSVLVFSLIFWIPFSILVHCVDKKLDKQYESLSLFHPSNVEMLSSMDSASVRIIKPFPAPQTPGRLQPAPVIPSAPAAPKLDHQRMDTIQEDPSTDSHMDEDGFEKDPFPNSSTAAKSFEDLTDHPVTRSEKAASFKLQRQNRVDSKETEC

In general, IC50 refers to the concentration that gives 50% inhibition. Regarding `CC#CCOc1ccc(S(=O)(=O)N(C)C(C(=O)NO)C(C)C)cc1` (stereo not drawn) [Example 9, 2-[(4-but-2-ynyloxy-Benzenesulfonyl)-methyl-amino]-N-hydroxy-3-methyl-butyramide], the IC50 is 0.0074 µM in test [1], 0.0045 µM in test [2] and 0.04 µM in test [3] (read-out: MMP-1 IC50).

As to `CC#CCOc1ccc(S(=O)(=O)N2CCCSC(C)(C)[C@@H]2C(=O)NO)cc1` [Example 173], the IC50 is 0.111 µM in test [1], 0.016 µM in test [2] and 0.02 µM in test [3] (read-out: MMP-1 IC50).

For the molecule `CC#CCOc1ccc(S(=O)(=O)N2CCCSC[C@@H]2C(=O)NO)cc1` [Example 174], the results for the IC50 in test [1], in test [2] and in test [3] (read-out: MMP-1 IC50) were 0.02 µM, 0.036 µM and 0.408 µM, respectively.

As for `CC#CCOc1ccc(S(=O)(=O)N2CCCS(=O)(=O)C[C@@H]2C(=O)NO)cc1` [Example 175], the values for the concentration for half-maximal inhibition (IC50) in test [1], in test [2] and in test [3] (read-out: MMP-1 IC50) were 0.028 µM, 0.05 µM and 1.03 µM, respectively.

As for `CC#CCOc1ccc(S(=O)(=O)NC(C(=O)NO)c2ccc(OCCNC)cc2)cc1` (stereo not drawn) [Example 204], in test [3] (MMP-1 IC50), the half-inhibitory concentration (IC50) was ~10 µM.

With `CC#CCOc1ccc(S(=O)(=O)NC(C(=O)NO)c2ccc(OCCN3CCCC3)cc2)cc1` (stereo not drawn) [Example 205, 2-({[4-(2-Butynyloxy)phenyl]sulfonyl}amino)-N-hydroxy-2-{4-[2-(1-pyrrolidinyl)ethoxy]phenyl}acetamide], the IC50 in test [1] is 0.024 µM; in test [2], 0.146 µM; in test [3] (read-out: MMP-1 IC50) it was ~10 µM.

Take `CC#CCOc1ccc(S(=O)(=O)NC(C(=O)NO)c2ccc(OCCN(C)C)cc2)cc1` (stereo not drawn) [Example 207, 2-({[4-(2-Butynyloxy)phenyl]sulfonyl}amino){4-[2-(dimethylamino)ethoxy]phenyl}-N-hydroxyacetamide]: the IC50 in test [1] is 0.053 µM; in test [2], 0.112 µM; in test [3] (read-out: MMP-1 IC50) it was > 10 µM.

Turning to `CC#CCOc1ccc(S(=O)(=O)NC(C(=O)NO)c2ccc(OCCc3scnc3C)cc2)cc1` (stereo not drawn) [Example 208, 2-({[4-(2-Butynyloxy)phenyl]sulfonyl}amino)-N-hydroxy-2-{4-[2-(4-methyl-1,3-thiazol-5-yl)ethoxy]phenyl}acetamide], the half-inhibitory concentration (IC50) is 0.069 µM in test [1], 0.23 µM in test [2] and > 10 µM in test [3] (read-out: MMP-1 IC50).

On to `CC#CCOc1ccc(S(=O)(=O)NC(C(=O)NO)c2ccc(OCCOCCOCCOC)cc2)cc1` (stereo not drawn) [Example 209, 2-({[4-(2-Butynyloxy)phenyl]sulfonyl}amino)-N-hydroxy-2-(4-{2-[2-(2-methoxyethoxy)ethoxy]ethoxy}phenyl)acetamide], for which the half-inhibitory concentration (IC50) in test [1] was 0.039 µM; in test [2], 0.132 µM; in test [3] (read-out: MMP-1 IC50), ~10 µM.

As to `CC#CCOc1ccc(S(=O)(=O)NC(C(=O)NO)c2ccc(OCCOCCOC)cc2)cc1` (stereo not drawn) [Example 210, 2-({[4-(2-Butynyloxy)phenyl]sulfonyl}amino)-N-hydroxy-2-{4-[2-(2-methoxyethoxy)ethoxy]phenyl}acetamide], the IC50 in test [1] is 0.017 µM; in test [2], 0.278 µM; in test [3] (read-out: MMP-1 IC50), > 10 µM.

`CC#CCOc1ccc(S(=O)(=O)N2CCSC3(CCN(Cc4ccccc4)CC3)C2C(=O)NO)cc1` (stereo not drawn) [Example 241, 9-Benzyl-4-{[4-(2-butynyloxy)phenyl]sulfonyl}-N-hydroxy-1-thia-4,9-diazaspiro[5.5]undecane-5-carboxamide]: the IC50 in test [1] (Table 9) is 0.786 µM; in test [2] (Table 9) it was 0.0005 µM; in test [3] (Table 9, read-out: MMP-1 IC50), 0.0031 µM.

As for `CC(C)(C)OC(=O)NCCCCC#CCOc1ccc(S(=O)(=O)N2CCSC(C)(C)[C@@H]2C(=O)NO)cc1` [Example 252, tert-Butyl 7-[4-({(3S)-3-[(Hydroxyamino)carbonyl]-2,2-dimethylthiomorpholinyl}sulfonyl)phenoxy]-5-heptynylcarbamate], the IC50 in test [1] (Table 10) turned out to be 0.199 µM; in test [2] (Table 10), 0.0043 µM; in test [3] (Table 10, read-out: MMP-1 IC50) it was 0.087 µM.

`CC1(C)SCCN(S(=O)(=O)c2ccc(OCC#CCCCCN)cc2)[C@H]1C(=O)NO` [Example 253]: the half-inhibitory concentration (IC50) in test [1] (Table 10) stood at 0.04 µM; in test [2] (Table 10), 0.0073 µM; in test [3] (Table 10, read-out: MMP-1 IC50), 0.092 µM.

In the case of `CC1(C)SCCN(S(=O)(=O)c2ccc(OCC#Cc3ccccc3)cc2)[C@H]1C(=O)NO` [Example 254, (3S)-N-Hydroxy-2,2-dimethyl-4-({4-[(3-phenyl-2-propynyl)oxy]phenyl}sulfonyl)-3-thiomorpholine Carboxamide], the IC50 in test [1] (Table 10) came to 0.173 µM; in test [2] (Table 10), 0.011 µM; in test [3] (Table 10, read-out: MMP-1 IC50), 0.013 µM.

Consider `C#CCOc1ccc(S(=O)(=O)N2CCSC(C)(C)[C@@H]2C(=O)NO)cc1` [Example 258, (3S)-N-Hydroxy-2,2-dimethyl-4-{[4-(2-propynyloxy)phenyl]sulfonyl}-3-thiomorpholine Carboxamide], for which the IC50 in test [1] (Table 9) is 0.019 µM; in test [2] (Table 9), 0.0008 µM; in test [3] (Table 9, read-out: MMP-1 IC50), 0.0006 µM.

In the case of `CCC#CCOc1ccc(S(=O)(=O)N2CCSC(C)(C)[C@@H]2C(=O)NO)cc1` [Example 259, (3S)-N-Hydroxy-2,2-dimethyl-4-{[4-(2-pentynyloxy)phenyl]sulfonyl}-3-thiomorpholine Carboxamide], the IC50 in test [1] (Table 9) came out at 0.028 µM; in test [2] (Table 9), 0.005 µM; in test [3] (Table 9, read-out: MMP-1 IC50) it was 0.0059 µM.

With `CC(=O)OCC#CCOc1ccc(S(=O)(=O)N2CCSC(C)(C)[C@@H]2C(=O)NO)cc1` [Example 261, 4-[4-({(3S3-[(Hydroxyamino)carbonyl]-2,2-dimethylthiomorpholinyl}sulfonyl)phenoxy]-2-butynyl Acetate], the IC50 amounted to 0.045 µM in test [1] (Table 10); 0.0011 µM in test [2] (Table 10); 0.103 µM in test [3] (Table 10, read-out: MMP-1 IC50).

Regarding `CC1(C)SCCN(S(=O)(=O)c2ccc(OCC#CC#CCO)cc2)[C@H]1C(=O)NO` [Example 262, (3S)-N-Hydroxy-4-({4-[(6-hydroxy-2,4-hexadiynyl)oxy]phenyl}sulfonyl)-2,2-dimethyl-3-thiomorpholine Carboxamide], the IC50 is 0.039 µM in test [1] (Table 10); 0.014 µM in test [2] (Table 10); 0.0099 µM in test [3] (Table 10, read-out: MMP-1 IC50).

As to `C#CC#CCOc1ccc(S(=O)(=O)N2CCSC(C)(C)[C@@H]2C(=O)NO)cc1` [Example 263], the IC50 was determined as 0.042 µM in test [1] (Table 10); 0.011 µM in test [2] (Table 10); 0.0057 µM in test [3] (Table 10, read-out: MMP-1 IC50).

On to `CC1(C)SCCN(S(=O)(=O)c2ccc(OCC#CCF)cc2)[C@H]1C(=O)NO` [Example 264, (3S)-4-({4-[(4-Fluoro-2-butynyl)oxy]phenyl}sulfonyl)-N-hydroxy-2,2-dimethyl-3-thiomorpholine Carboxamide], for which the IC50 came out at 0.035 µM in test [1] (Table 10); 0.0025 µM in test [2] (Table 10); 0.011 µM in test [3] (Table 10, read-out: MMP-1 IC50).

As to `CC(=O)OCCCCC#CCOc1ccc(S(=O)(=O)N2CCSC(C)(C)[C@@H]2C(=O)NO)cc1` [Example 268, 7-[4-({(3S)-3-[(Hydroxyamino)carbonyl]-2,2-dimethylthiomorpholinyl}sulfonyl)phenoxy]-5-heptynyl Acetate], the concentration for half-maximal inhibition (IC50) in test [1] (Table 10) is 0.078 µM; in test [2] (Table 10), 0.0029 µM; in test [3] (Table 10, read-out: MMP-1 IC50) it was 0.029 µM.

As for `CC1(C)SCCN(S(=O)(=O)c2ccc(OCC#CCCCCO)cc2)[C@H]1C(=O)NO` [Example 269, (3S)-N-Hydroxy-4-([4-[(7-hydroxy-2-heptynyl)oxy]phenyl}sulfonyl)-2,2-dimethyl-3-thiomorpholinecarboxamide], the IC50 in test [1] (Table 10) came to 0.053 µM; in test [2] (Table 10) it was 0.017 µM; in test [3] (Table 10, read-out: MMP-1 IC50) it was 0.101 µM.

Regarding `CC#CCOc1ccc(S(=O)(=O)N2[C@@H](C(=O)NO)C(C)(C)SC[C@@H]2C)cc1` [Example 270, (3S,5S)-4-{[4-(2-Butynyloxy)phenyl]sulfonyl}-N-hydroxy-2,2,5-trimethyl-3-thiomorpholinecarboxamide], the half-inhibitory concentration (IC50) in test [1] (Table 11) was 0.086 µM; in test [2] (Table 11), 0.061 µM; in test [3] (Table 11, read-out: MMP-1 IC50), 0.032 µM.

`CC#CCOc1ccc(S(=O)(=O)N2[C@H](C)CSC(C)(C)[C@@H]2C(=O)NO)cc1` [Example 271, (3S,5R)-4-{[4-(2-Butynyloxy)phenyl]sulfonyl}-N-hydroxy-2,2,5-trimethyl-3-thiomorpholinecarboxamide]: the IC50 in test [1] (Table 11) amounted to 0.045 µM; in test [2] (Table 11), 0.088 µM; in test [3] (Table 11, read-out: MMP-1 IC50), 0.047 µM.

With `CC#CCOc1ccc(S(=O)(=O)N2C[C@H](CC(=O)OC(C)(C)C)SC(C)(C)[C@@H]2C(=O)NO)cc1` [Example 277, tert-Butyl{(2S,5S)-4-{[4-(2-butynyloxy)phenyl]sulfonyl}-5-[(hydroxyamino)carbonyl]-6,6-dimethylthiomorpholinyl}acetate], the IC50 in test [1] (Table 11) was determined as 0.234 µM; in test [2] (Table 11) it was 0.0076 µM; in test [3] (Table 11, read-out: MMP-1 IC50), 0.0078 µM.

As for `CC#CCOc1ccc(S(=O)(=O)N2C[C@H](CC(=O)O)SC(C)(C)[C@@H]2C(=O)NO)cc1` [Example 278, [(2S,5S)-4-{[4-(2-Butynyloxy)phenyl]sulfonyl}-5-[(hydroxyamino)carbonyl]-6,6-dimethylthiomorpholinyl}acetic Acid], the IC50 in test [1] (Table 11) worked out at 0.02 µM; in test [2] (Table 11), 0.0067 µM; in test [3] (Table 11, read-out: MMP-1 IC50), 0.017 µM.

With `CC#CCOc1ccc(S(=O)(=O)N2CCN(C(=O)OC(C)(C)C)CCC2C(=O)NO)cc1` (stereo not drawn) [Example 291, tert-Butyl 4-{[4-(2-Butynyloxy)phenyl]sulfonyl}-5[(hydroxyamino)carbonyl]-1,4-diazepane-1-carboxylate], the IC50 in test [1] amounted to 0.074 µM; in test [3] (read-out: MMP-1 IC50), 0.092 µM.
